The record followed here is ChEMBL document CHEMBL1144085, “DNA polymerase beta inhibitors from Sandoricum koetjape” (J Nat Prod, 1999).

One experiment has as its target DNA polymerase beta (Rattus norvegicus, UniProt P06766). Briefly: (§1) Inhibition of rat DNA polymerase beta.
Experiment [1] has as its target DNA polymerase beta (Rattus norvegicus) (UniProt P06766). Briefly: Activity of rat DNA polymerase beta using variable levels of [3H]TTP substrate by Lineweaver-Burke plot.
The target is the same in experiment [2]. Briefly: Activity of rat DNA polymerase beta using variable levels of DNA template primer by Lineweaver-Burke plot.
For experiment [3] the target is unchanged. The description is as §1.

Calls of active or inactive are those of the source. The rule behind the calls is not given here.

`CO/N=C1/CC[C@]2(C)[C@H]3CC=C4[C@@H]5C[C@](C)(C(=O)O)CC[C@]5(C)CC[C@@]4(C)[C@]3(C)CC[C@H]2C1(C)C` displayed an IC50 at DNA polymerase beta of 36 µM. Besides, the Kii in experiment [1] and in experiment [2] was 35 µM in each case. The Kis in experiment [1] came to 73 µM; in experiment [2] it was 9.1 µM.

Take `CC1(C)[C@H](O)CC[C@]2(C)[C@H]3CC=C4[C@@H]5C[C@](C)(C(=O)O)CC[C@]5(C)CC[C@@]4(C)[C@]3(C)CC[C@@H]12` [KATONIC ACID]: on DNA polymerase beta, half-maximal inhibition (IC50) required 36 µM. In addition, in experiment [1], the Kii was 24 µM and the Kis amounted to 60 µM. Besides, in experiment [2], the Kii worked out at 11 µM and the Kis is 4.2 µM.

As to `CCCCNC(=O)[C@]1(C)CC[C@]2(C)CC[C@]3(C)C(=CC[C@@H]4[C@@]5(C)CCC(=O)C(C)(C)[C@@H]5CC[C@]43C)[C@@H]2C1`, the result in experiment [3] was inactive.

Turning to `CCN(CC)C(=O)[C@]1(C)CC[C@]2(C)CC[C@]3(C)C(=CC[C@@H]4[C@@]5(C)CCC(=O)C(C)(C)[C@@H]5CC[C@]43C)[C@@H]2C1`, in experiment [3], the outcome was inactive.

For the compound `CCOC(=O)[C@]1(C)CC[C@]2(C)CC[C@]3(C)C(=CC[C@@H]4[C@@]5(C)CCC(=O)C(C)(C)[C@@H]5CC[C@]43C)[C@@H]2C1`, the result in experiment [3] was inactive.

With `CC(C)(C)NC(=O)[C@]1(C)CC[C@]2(C)CC[C@]3(C)C(=CC[C@@H]4[C@@]5(C)CCC(=O)C(C)(C)[C@@H]5CC[C@]43C)[C@@H]2C1`, in experiment [3], the result was inactive.

For `C=C(C)[C@@H]1CC[C@]2(C)[C@H](CC=C3[C@@H]4C[C@@](C)(C(=O)O)CC[C@]4(C)CC[C@]32C)[C@@]1(C)CCC(=O)O` [KOETJAPIC ACID], the concentration for half-maximal inhibition (IC50) against DNA polymerase beta worked out at 20 µM. In experiment [1], this compound showed a Kii of 11 µM and a Kis of 24 µM. In experiment [2], the Kii stood at 18 µM and the Kis was determined as 5.6 µM.

In the case of `CC1(C)/C(=N\OCc2ccccc2)CC[C@]2(C)[C@H]3CC=C4[C@@H]5C[C@](C)(C(=O)O)CC[C@]5(C)CC[C@@]4(C)[C@]3(C)CC[C@@H]12`, half-maximal inhibition against DNA polymerase beta (IC50) required 35 µM. For the same compound, in experiment [1], the Kii came to 22 µM and the Kis was 69 µM. Also, in experiment [2], the Kii was 24 µM and the Kis is 37 µM.

Consider `COC(=O)[C@]1(C)CC[C@]2(C)CC[C@]3(C)C(=CC[C@@H]4[C@@]5(C)CC[C@@H](O)C(C)(C)[C@@H]5CC[C@]43C)[C@@H]2C1`, for which the result in experiment [3] was inactive.

For the compound `CC1(C)C(=O)CC[C@]2(C)[C@H]3CC=C4[C@@H]5C[C@](C)(C(N)=O)CC[C@]5(C)CC[C@@]4(C)[C@]3(C)CC[C@@H]12`, the outcome in experiment [3] was inactive.

Take `CC1(C)/C(=N\O)CC[C@]2(C)[C@H]3CC=C4[C@@H]5C[C@](C)(C(=O)O)CC[C@]5(C)CC[C@@]4(C)[C@]3(C)CC[C@@H]12`: at DNA polymerase beta, the IC50 was determined as 16 µM. In experiment [1], the Kii stood at 10 µM and the Kis came to 16 µM.

The compound `CC1(C)C(=O)CC[C@]2(C)[C@H]3CC=C4[C@@H]5C[C@](C)(C(=O)O)CC[C@]5(C)CC[C@@]4(C)[C@]3(C)CC[C@@H]12` registered an IC50 against DNA polymerase beta of 22 µM. The Kii in experiment [1] stood at 9.1 µM; in experiment [2], 50 µM. Moreover, the Kis turned out to be 60 µM in experiment [1] and 5.5 µM in experiment [2].

With `COC(=O)[C@]1(C)CC[C@]2(C)CC[C@]3(C)C(=CC[C@@H]4[C@@]5(C)CCC(=O)C(C)(C)[C@@H]5CC[C@]43C)[C@@H]2C1`, the outcome in experiment [3] was inactive.

For orientation: IC50 means the concentration needed to halve the response being measured.
